Results on one compound are retold here after ChEMBL document CHEMBL4118189, “Discovery of novel N-hydroxy-2-arylisoindoline-4-carboxamides as potent and selective inhibitors of HDAC11” (Bioorg Med Chem Lett, 2018).

In brackets after ≈: the same amount, converted by molar mass.

In data set [1] the target is Histone deacetylase 4 (Homo sapiens, UniProt P56524). Briefly: Inhibition of full length recombinant human HDAC4 using fluorescent-labeled peptide as substrate by electrophoretic mobility shift assay. On the technique in general: Mobility shift assays separate free from complexed probe on a gel.
Data set [2] can be described thus: Permeability of the compound by PAMPA. The format is ADME. The conditions noted are these: read-out: permeability. For orientation: PAMPA measures passive passage across an artificial lipid membrane.
The target of data set [3] is T1, Protein deacetylase HDAC6 (Homo sapiens, UniProt Q9UBN7).
T1 sequence (Q9UBN7 whole entry): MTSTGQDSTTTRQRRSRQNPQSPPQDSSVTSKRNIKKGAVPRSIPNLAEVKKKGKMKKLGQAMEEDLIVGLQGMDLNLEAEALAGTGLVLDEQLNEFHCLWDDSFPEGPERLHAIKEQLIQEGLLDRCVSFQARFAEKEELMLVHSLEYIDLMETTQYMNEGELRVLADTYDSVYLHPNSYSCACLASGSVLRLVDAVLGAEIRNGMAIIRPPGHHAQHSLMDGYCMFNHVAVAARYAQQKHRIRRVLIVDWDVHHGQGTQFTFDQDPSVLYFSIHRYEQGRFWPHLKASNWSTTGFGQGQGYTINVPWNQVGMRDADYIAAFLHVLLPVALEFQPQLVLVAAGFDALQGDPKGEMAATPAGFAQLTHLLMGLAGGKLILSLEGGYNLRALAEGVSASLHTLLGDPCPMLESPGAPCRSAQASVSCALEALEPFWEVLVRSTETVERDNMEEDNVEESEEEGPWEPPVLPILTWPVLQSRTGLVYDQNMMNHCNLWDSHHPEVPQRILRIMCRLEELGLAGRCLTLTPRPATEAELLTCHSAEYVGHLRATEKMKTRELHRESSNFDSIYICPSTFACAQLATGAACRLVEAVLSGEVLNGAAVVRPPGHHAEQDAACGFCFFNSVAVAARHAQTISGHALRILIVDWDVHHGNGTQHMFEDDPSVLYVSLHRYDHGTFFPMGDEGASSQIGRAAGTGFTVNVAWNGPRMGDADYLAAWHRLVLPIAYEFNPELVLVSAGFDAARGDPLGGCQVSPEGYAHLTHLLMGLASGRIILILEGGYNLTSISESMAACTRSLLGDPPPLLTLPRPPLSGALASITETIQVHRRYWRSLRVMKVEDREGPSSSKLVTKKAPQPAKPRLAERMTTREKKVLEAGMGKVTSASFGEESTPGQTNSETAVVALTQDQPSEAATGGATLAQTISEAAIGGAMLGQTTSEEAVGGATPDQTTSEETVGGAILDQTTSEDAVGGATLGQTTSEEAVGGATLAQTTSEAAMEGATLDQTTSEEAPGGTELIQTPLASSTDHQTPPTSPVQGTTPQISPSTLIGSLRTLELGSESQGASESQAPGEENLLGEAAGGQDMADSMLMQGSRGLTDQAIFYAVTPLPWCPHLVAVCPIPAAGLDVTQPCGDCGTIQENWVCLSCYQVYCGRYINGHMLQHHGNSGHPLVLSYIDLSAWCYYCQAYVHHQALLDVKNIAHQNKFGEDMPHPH
Briefly: Inhibition of full length recombinant human HDAC6 using fluorescent-labeled peptide as substrate by electrophoretic mobility shift assay.

The target of data set [4] is Histone deacetylase 1 (Homo sapiens, UniProt Q13547). Briefly: Inhibition of full length recombinant human HDAC1 using fluorescent-labeled peptide as substrate by electrophoretic mobility shift assay.
In data set [5] the target is Histone deacetylase 2 (Homo sapiens, UniProt Q92769). Briefly: Inhibition of full length recombinant human HDAC2 using fluorescent-labeled peptide as substrate by electrophoretic mobility shift assay.
The target in data set [6] is Histone deacetylase 9 (Homo sapiens, UniProt Q9UKV0). The data set is described as follows: Inhibition of full length recombinant human HDAC9 using fluorescent-labeled peptide as substrate by electrophoretic mobility shift assay.
A short description of data set [7]: Intrinsic clearance in mouse liver microsomes. The format is ADME, microsome. The conditions noted are these: read-out: CLH.
A short description of data set [8]: Kinetic solubility of the compound at pH 7.4. The conditions noted are these: buffer, read-out: Kinetic_solubility. It counts as physicochemical.
Data set [9] addresses Histone deacetylase 5 (Homo sapiens, UniProt Q9UQL6). Briefly: Inhibition of full length recombinant human HDAC5 using fluorescent-labeled peptide as substrate by electrophoretic mobility shift assay.

Histone deacetylase 4, sequence (P56524 whole entry): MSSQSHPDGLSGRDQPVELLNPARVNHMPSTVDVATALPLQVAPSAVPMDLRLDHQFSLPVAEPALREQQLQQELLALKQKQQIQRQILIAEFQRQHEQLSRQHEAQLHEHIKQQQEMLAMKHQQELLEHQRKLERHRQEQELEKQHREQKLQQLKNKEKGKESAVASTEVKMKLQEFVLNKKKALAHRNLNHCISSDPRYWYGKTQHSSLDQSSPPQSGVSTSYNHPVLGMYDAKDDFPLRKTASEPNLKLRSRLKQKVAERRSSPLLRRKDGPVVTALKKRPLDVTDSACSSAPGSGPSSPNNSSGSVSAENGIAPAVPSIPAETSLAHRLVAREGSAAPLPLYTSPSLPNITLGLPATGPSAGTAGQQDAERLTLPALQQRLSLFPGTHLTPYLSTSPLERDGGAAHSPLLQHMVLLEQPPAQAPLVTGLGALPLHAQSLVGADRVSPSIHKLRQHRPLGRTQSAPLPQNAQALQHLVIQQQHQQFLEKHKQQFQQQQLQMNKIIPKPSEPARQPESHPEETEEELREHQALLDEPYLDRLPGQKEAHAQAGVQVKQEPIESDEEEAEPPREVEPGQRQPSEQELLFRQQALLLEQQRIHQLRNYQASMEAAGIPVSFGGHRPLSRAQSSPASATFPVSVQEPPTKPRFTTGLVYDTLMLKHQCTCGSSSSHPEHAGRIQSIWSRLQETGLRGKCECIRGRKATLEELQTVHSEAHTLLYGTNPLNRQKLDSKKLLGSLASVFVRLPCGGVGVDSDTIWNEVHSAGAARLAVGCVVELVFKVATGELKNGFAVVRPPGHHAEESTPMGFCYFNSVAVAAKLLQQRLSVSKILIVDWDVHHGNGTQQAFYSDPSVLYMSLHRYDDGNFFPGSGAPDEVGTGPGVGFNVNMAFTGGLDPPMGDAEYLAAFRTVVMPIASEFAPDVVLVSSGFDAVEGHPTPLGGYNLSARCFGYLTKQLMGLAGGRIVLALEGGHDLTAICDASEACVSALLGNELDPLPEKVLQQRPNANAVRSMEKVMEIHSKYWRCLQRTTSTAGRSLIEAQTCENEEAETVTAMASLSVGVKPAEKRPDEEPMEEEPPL
Histone deacetylase 2, sequence (Q92769 whole entry): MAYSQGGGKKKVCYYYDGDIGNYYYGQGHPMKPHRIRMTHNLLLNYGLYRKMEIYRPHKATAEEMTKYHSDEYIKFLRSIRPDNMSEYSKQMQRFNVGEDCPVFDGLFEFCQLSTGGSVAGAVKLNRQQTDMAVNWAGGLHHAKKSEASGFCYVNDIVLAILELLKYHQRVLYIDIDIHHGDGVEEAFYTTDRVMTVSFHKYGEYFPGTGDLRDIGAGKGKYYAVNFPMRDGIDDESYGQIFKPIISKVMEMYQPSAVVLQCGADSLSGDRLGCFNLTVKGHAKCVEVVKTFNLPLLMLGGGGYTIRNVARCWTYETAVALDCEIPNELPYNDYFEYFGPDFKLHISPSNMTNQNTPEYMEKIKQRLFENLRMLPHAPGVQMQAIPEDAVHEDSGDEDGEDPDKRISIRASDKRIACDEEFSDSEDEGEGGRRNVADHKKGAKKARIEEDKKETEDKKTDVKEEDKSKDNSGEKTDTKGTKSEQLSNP
Histone deacetylase 1, sequence (Q13547 whole entry): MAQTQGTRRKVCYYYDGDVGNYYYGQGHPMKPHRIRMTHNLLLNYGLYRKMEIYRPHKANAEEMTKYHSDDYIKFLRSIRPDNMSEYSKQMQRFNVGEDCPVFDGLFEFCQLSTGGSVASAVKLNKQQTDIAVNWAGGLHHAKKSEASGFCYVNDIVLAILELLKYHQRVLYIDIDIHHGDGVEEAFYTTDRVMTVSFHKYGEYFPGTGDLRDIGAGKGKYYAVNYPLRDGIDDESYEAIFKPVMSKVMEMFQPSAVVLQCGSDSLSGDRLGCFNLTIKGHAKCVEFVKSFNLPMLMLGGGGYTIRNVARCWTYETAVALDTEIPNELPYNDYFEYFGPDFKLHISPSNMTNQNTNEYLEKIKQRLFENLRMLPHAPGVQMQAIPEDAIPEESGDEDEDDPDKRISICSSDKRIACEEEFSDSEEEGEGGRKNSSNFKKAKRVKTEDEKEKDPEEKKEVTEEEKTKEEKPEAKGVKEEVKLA
Histone deacetylase 5, sequence (Q9UQL6 whole entry): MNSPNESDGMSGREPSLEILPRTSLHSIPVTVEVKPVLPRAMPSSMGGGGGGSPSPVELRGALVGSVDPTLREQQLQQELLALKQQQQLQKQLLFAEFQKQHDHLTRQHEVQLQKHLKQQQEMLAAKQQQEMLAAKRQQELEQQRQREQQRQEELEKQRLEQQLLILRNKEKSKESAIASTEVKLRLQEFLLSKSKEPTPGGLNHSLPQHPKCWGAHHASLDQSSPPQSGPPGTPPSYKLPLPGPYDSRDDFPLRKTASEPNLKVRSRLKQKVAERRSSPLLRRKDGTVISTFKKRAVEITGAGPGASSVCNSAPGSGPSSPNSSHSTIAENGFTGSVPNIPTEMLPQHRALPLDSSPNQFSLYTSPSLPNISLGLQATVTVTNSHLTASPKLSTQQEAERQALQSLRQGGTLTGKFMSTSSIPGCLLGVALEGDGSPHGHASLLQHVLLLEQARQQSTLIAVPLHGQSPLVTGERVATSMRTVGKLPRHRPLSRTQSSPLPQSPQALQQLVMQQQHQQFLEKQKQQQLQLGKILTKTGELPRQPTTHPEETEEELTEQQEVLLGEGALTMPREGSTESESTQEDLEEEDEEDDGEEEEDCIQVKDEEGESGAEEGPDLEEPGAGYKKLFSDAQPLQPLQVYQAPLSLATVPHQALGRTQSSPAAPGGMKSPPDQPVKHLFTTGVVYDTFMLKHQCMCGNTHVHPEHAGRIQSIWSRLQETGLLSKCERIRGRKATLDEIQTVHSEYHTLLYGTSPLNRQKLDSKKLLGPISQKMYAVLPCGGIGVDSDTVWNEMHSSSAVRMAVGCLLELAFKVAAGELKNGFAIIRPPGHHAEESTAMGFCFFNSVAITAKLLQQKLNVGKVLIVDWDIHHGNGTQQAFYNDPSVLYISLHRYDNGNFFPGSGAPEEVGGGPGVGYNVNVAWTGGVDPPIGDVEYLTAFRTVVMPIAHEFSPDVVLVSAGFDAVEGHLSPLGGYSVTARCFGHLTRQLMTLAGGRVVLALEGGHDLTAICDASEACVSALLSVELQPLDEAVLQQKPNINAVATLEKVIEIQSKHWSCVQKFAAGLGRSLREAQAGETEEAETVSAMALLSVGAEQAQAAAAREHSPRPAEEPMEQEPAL
Histone deacetylase 9, sequence (Q9UKV0 whole entry): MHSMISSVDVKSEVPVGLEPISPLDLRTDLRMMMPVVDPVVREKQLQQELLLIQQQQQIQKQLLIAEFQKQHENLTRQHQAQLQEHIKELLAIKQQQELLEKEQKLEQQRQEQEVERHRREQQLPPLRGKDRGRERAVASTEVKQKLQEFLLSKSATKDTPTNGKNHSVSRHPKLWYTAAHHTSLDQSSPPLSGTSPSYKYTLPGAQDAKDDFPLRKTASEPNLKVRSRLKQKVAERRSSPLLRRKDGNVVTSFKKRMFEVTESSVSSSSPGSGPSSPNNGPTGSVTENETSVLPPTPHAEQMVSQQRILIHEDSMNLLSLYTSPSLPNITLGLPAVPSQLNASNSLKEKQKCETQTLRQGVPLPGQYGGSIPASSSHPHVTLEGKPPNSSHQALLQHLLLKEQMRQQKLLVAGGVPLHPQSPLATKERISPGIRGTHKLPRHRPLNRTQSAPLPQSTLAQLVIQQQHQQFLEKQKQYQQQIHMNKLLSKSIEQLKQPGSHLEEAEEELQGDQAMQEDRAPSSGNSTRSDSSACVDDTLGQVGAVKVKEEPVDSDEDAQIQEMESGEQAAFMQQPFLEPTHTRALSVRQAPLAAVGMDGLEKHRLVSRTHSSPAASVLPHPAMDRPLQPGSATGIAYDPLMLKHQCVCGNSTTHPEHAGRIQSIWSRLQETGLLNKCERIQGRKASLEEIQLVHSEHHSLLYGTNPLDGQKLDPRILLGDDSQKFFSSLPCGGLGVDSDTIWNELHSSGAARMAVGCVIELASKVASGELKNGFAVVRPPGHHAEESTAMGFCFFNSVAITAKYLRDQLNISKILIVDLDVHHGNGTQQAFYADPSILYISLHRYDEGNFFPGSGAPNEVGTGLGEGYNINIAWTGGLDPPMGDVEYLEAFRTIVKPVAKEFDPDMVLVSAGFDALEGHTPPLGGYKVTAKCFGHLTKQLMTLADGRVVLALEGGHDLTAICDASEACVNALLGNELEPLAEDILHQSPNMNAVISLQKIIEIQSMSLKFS

Regarding `CC1(C)c2cccc(C(N)=O)c2CN1c1cnc(C(F)(F)F)cn1`, the IC50 in [1], in data set [3], in data set [4], in data set [5], in [6] and in data set [9] was over 10 µM throughout. Also, in data set [2], the Papp is 17 ×10⁻⁶ cm/s. The microsomal CLint in data set [7] was 7 µL/min/mg. Besides, in [8], the solubility kinetic worked out at 0.3 µM (≈ 0.101 µg/mL).
